The values that follow come from US9062078B2, “Substituted 7-azabicyles and their use as orexin receptor modulators” (priority 2013, dated 2015).

One test concerns the target human orexin 1 receptor (Homo sapiens (Human), UniProt O43613). Nature of the test: Human orexin 1 receptor radioligand binding (competitive, [3H]-SB674042, CHO cell preparations).
Another test addresses human orexin 2 receptor (Homo sapiens (Human), UniProt O43614). As to the kind of experiment: Human orexin 2 receptor radioligand binding (competitive, [3H]-EMPA, HEK293 cell preparations).
The mark [1] stands for this setting: human orexin 2 receptor, [3H]-EMPA competition binding, read-out: hOX2 Ki (nm).
[2] abbreviates: human orexin 1 receptor, [3H]-SB674042 competition binding, read-out: hOX1 Ki (nm).

pKi: −log10 of the molar value. Read-outs that look alike come from different tables or passages of the source.

Chain of human orexin 1 receptor (O43613 whole entry): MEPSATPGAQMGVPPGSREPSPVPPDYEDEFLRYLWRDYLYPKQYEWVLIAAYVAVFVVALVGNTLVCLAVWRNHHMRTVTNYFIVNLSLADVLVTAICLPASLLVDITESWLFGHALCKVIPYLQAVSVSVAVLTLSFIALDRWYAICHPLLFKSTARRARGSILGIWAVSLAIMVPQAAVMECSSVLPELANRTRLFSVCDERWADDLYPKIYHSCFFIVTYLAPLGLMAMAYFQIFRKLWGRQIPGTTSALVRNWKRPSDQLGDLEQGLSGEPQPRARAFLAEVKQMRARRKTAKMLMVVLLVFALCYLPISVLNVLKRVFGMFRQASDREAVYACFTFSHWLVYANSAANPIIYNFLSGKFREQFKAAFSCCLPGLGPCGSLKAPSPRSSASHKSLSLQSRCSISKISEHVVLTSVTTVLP
Chain of human orexin 2 receptor (O43614 whole entry): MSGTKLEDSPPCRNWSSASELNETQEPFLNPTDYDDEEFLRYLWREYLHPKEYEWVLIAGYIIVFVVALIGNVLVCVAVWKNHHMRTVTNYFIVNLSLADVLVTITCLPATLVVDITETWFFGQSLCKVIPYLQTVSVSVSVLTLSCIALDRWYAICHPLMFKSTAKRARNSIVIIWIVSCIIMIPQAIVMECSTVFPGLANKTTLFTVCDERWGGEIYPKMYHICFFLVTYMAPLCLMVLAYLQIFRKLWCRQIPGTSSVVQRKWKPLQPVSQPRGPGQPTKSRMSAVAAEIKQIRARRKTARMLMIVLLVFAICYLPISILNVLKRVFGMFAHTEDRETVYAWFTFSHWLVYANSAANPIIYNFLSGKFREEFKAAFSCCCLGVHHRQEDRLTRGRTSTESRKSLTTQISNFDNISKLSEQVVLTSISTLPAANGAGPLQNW

What is called pKi is −log10 of the Ki, conventionally taken in molar units. Regarding `Cc1ccc(-n2nccn2)c(C(=O)N2C3CCC2C(COc2nccc(C(F)(F)F)n2)C3)c1` (racemic) [Example 13, (±)-(5-methyl-2-(2H-1,2,3-triazol-2-yl)phenyl)(2-(((4-(trifluoromethyl)pyrimidin-2-yl)oxy)methyl)-7-azabicyclo[2.2.1]heptan-7-yl)methanone], the pKi at human orexin 1 receptor (hOX1 Ki (nm)) was 6.93; on human orexin 2 receptor (setting [1]) it was 6.96.
The corresponding values for `Cc1ccc(-n2nccn2)c(C(=O)N2C3CCC2C(COc2ccc(C(F)(F)F)cn2)C3)c1` (racemic) [Example 14, (±)-(5-methyl-2-(2H-1,2,3-triazol-2-yl)phenyl)(2-(((5-(trifluoromethyl)pyridin-2-yl)oxy)methyl)-7-azabicyclo[2.2.1]heptan-7-yl)methanone] are 7.30 and 7.15.
Take `Cc1ccc(-n2nccn2)c(C(=O)N2C3CCC2C(COc2ncccc2C(F)(F)F)C3)c1` (racemic) [Example 15, (±)-(5-methyl-2-(2H-1,2,3-triazol-2-yl)phenyl)(2-(((3-(trifluoromethyl)pyridin-2-yl)oxy)methyl)-7-azabicyclo[2.2.1]heptan-7-yl)methanone]: the pKi at human orexin 1 receptor (hOX1 Ki (nm)) is 7.25; on human orexin 2 receptor (setting [1]) it was 6.92.
`Cc1ccc(-n2nccn2)c(C(=O)N2C3CCC2C(COc2cccc(C(F)(F)F)n2)C3)c1` (racemic) [Example 16, (±)-(5-methyl-2-(2H-1,2,3-triazol-2-yl)phenyl)(2-(((6-(trifluoromethyl)pyridin-2-yl)oxy)methyl)-7-azabicyclo[2.2.1]heptan-7-yl)methanone]: the pKi at human orexin 1 receptor (setting [2]) is 7.70; on human orexin 2 receptor (setting [1]) it was 7.38.
Take `Cc1ccnc(OCC2CC3CCC2N3C(=O)c2cc(C)ccc2-n2nccn2)c1` (racemic) [Example 17, (±)-(5-methyl-2-(2H-1,2,3-triazol-2-yl)phenyl)(2-(((4-methylpyridin-2-yl)oxy)methyl)-7-azabicyclo[2.2.1]heptan-7-yl)methanone]: the figures for the pKi on human orexin 1 receptor (setting [2]) and on human orexin 2 receptor (setting [1]) were 7.39 and 7.16, respectively.
Consider `Cc1ccc(-n2nccn2)c(C(=O)N2C3CCC2C(COc2cccc(C)n2)C3)c1` (racemic) [Example 18, (±)-(5-methyl-2-(2H-1,2,3-triazol-2-yl)phenyl)(2-(((6-methylpyridin-2-yl)oxy)methyl)-7-azabicyclo[2.2.1]heptan-7-yl)methanone], for which the negative-log Ki (pKi) on human orexin 1 receptor (setting [2]) is 7.92; at human orexin 2 receptor (setting [1]), 7.36.
Take `Cc1ccc(OCC2CC3CCC2N3C(=O)c2cc(C)ccc2-n2nccn2)nc1` (racemic) [Example 19, (±)-(5-methyl-2-(2H-1,2,3-triazol-2-yl)phenyl)(2-(((5-methylpyridin-2-yl)oxy)methyl)-7-azabicyclo[2.2.1]heptan-7-yl)methanone]: the pKi at human orexin 1 receptor (setting [2]) was 7.92; at human orexin 2 receptor (setting [1]) it was 7.36.
Take `Cc1ccc(-n2nccn2)c(C(=O)N2C3CCC2C(COc2nc(C)cnc2C)C3)c1` (racemic) [Example 20, (±)-(2-(((3,6-dimethylpyrazin-2-yl)oxy)methyl)-7-azabicyclo[2.2.1]heptan-7-yl)(5-methyl-2-(2H-1,2,3-triazol-2-yl)phenyl)methanone]: the figures for the negative logarithm of the Ki (pKi) on human orexin 1 receptor (setting [2]) and on human orexin 2 receptor (setting [1]) were 6.57 and 6.44, respectively.
Take `Cc1ccc(-n2nccn2)c(C(=O)N2C3CCC2C(COc2nc4ccccc4nc2C(F)(F)F)C3)c1` (racemic) [Example 21, (±)-(5-methyl-2-(2H-1,2,3-triazol-2-yl)phenyl)(2-(((3-(trifluoromethyl)quinoxalin-2-yl)oxy)methyl)-7-azabicyclo[2.2.1]heptan-7-yl)methanone]: the pKi was 6.52 on human orexin 1 receptor (hOX1 Ki (nm)) and 6.31 at human orexin 2 receptor (setting [1]).
As for `O=C(c1ccccc1-n1nccn1)N1C2CCC1C(COc1ccc(F)cn1)C2` (racemic) [Example 22, (±)-(2-(2H-1,2,3-triazol-2-yl)phenyl)(2-(((5-fluoropyridin-2-yl)oxy)methyl)-7-azabicyclo[2.2.1]heptan-7-yl)methanone], the pKi at human orexin 1 receptor (setting [2]) is 7.33; on human orexin 2 receptor (setting [1]), 7.30.
Take `O=C(c1cccc2cccnc12)N1C2CCC1C(COc1ccc(F)cn1)C2` (racemic) [Example 23, (±)-2-(((5-fluoropyridin-2-yl)oxy)methyl)-7-azabicyclo[2.2.1]heptan-7-yl)(quinolin-8-yl)methanone]: the pKi is 6.49 on human orexin 1 receptor (setting [2]) and 5.82 on human orexin 2 receptor (setting [1]).
Take `O=C(c1cccc2ccccc12)N1C2CCC1C(COc1ccc(F)cn1)C2` (racemic) [Example 24, (±)-2-(((5-fluoropyridin-2-yl)oxy)methyl)-7-azabicyclo[2.2.1]heptan-7-yl)(naphthalen-1-yl)methanone]: the negative-log Ki (pKi) at human orexin 1 receptor (setting [2]) was 6.91; at human orexin 2 receptor (setting [1]), 6.79.
For `Cc1ccc2ccccc2c1C(=O)N1C2CCC1C(COc1ccc(F)cn1)C2` (racemic) [Example 25, (±)-2-(((5-fluoropyridin-2-yl)oxy)methyl)-7-azabicyclo[2.2.1]heptan-7-yl)(2-methylnaphthalen-1-yl)methanone], the pKi was 7.13 on human orexin 1 receptor (hOX1 Ki (nm)) and 6.80 at human orexin 2 receptor (hOX2 Ki (nm)).
Take `O=C(c1ccccc1-n1cccn1)N1C2CCC1C(COc1ccc(F)cn1)C2` (racemic) [Example 26, (±)-2-(1H-pyrazol-1-yl)phenyl)(2-(((5-fluoropyridin-2-yl)oxy)methyl)-7-azabicyclo[2.2.1]heptan-7-yl)methanone]: the figures for the pKi on human orexin 1 receptor (setting [2]) and at human orexin 2 receptor (setting [1]) were 6.93 and 6.40, respectively.
Consider `O=C(c1occc1-c1ccccc1)N1C2CCC1C(COc1ccc(F)cn1)C2` (racemic) [Example 27, (±)-2-(((5-fluoropyridin-2-yl)oxy)methyl)-7-azabicyclo[2.2.1]heptan-7-yl)(3-phenylfuran-2-yl)methanone], for which the pKi at human orexin 1 receptor (setting [2]) was 6.17; on human orexin 2 receptor (hOX2 Ki (nm)) it was 6.42.
On to `CCOc1ccc2ccccc2c1C(=O)N1C2CCC1C(COc1ccc(F)cn1)C2` (racemic) [Example 28, (±)-(2-ethoxynaphthalen-1-yl)(2-(((5-fluoropyridin-2-yl)oxy)methyl)-7-azabicyclo[2.2.1]heptan-7-yl)methanone], for which the results for the negative-log Ki (pKi) at human orexin 1 receptor (setting [2]) and at human orexin 2 receptor (setting [1]) were 7.85 and 7.96, respectively.
The corresponding values for `Cc1nc(C(=O)N2C3CCC2C(COc2ccc(F)cn2)C3)c(-c2ccccc2F)s1` (racemic) [Example 29, (±)-(5-(2-fluorophenyl)-2-methylthiazol-4-yl)(2-(((5-fluoropyridin-2-yl)oxy)methyl)-7-azabicyclo[2.2.1]heptan-7-yl)methanone] are 7.96 and 7.22.
Regarding `O=C(c1cc(F)ccc1-n1nccn1)N1C2CCC1C(COc1ccc(F)cn1)C2` (racemic) [Example 30, (±)-(5-fluoro-2-(2H-1,2,3-triazol-2-yl)phenyl)(2-(((5-fluoropyridin-2-yl)oxy)methyl)-7-azabicyclo[2.2.1]heptan-7-yl)methanone], the pKi is 7.33 on human orexin 1 receptor (setting [2]) and 6.83 on human orexin 2 receptor (setting [1]).
For the molecule `O=C(c1c(F)cccc1-c1ncccn1)N1C2CCC1C(COc1ccc(F)cn1)C2` (racemic) [Example 31, (±)-(2-fluoro-6-(pyrimidin-2-yl)phenyl)(2-(((5-fluoropyridin-2-yl)oxy)methyl)-7-azabicyclo[2.2.1]heptan-7-yl)methanone], the values for the pKi on human orexin 1 receptor (setting [2]) and at human orexin 2 receptor (setting [1]) were 7.48 and 6.91, respectively.
In the case of `O=C(c1cc(F)ccc1-c1ncccn1)N1C2CCC1C(COc1ccc(F)cn1)C2` (racemic) [Example 32, (±)-(5-fluoro-2-(pyrimidin-2-yl)phenyl)(2-(((5-fluoropyridin-2-yl)oxy)methyl)-7-azabicyclo[2.2.1]heptan-7-yl)methanone], the negative-log Ki (pKi) at human orexin 1 receptor (hOX1 Ki (nm)) is 7.68; on human orexin 2 receptor (setting [1]), 6.91.
In the case of `O=C(c1ccccc1-n1nccn1)N1C2CCC1C(COc1cnc3ccccc3n1)C2` (racemic) [Example 34, (±)-(2-(2H-1,2,3-triazol-2-yl)phenyl)(2-((quinoxalin-2-yloxy)methyl)-7-azabicyclo[2.2.1]heptan-7-yl)methanone], the negative-log Ki (pKi) at human orexin 1 receptor (setting [2]) is 7.22; at human orexin 2 receptor (setting [1]), 6.33.
For `Cc1ccc(-n2nccn2)c(C(=O)N2C3CCC2C(COc2cnc4ccccc4n2)C3)c1` (racemic) [Example 36, (±)-(5-methyl-2-(2H-1,2,3-triazol-2-yl)phenyl)(2-((quinoxalin-2-yloxy)methyl)-7-azabicyclo[2.2.1]heptan-7-yl)methanone], the pKi on human orexin 1 receptor (setting [2]) is 7.15; on human orexin 2 receptor (setting [1]), 6.97.
Regarding `O=C(c1cc(F)ccc1-n1nccn1)N1C2CCC1C(COc1cnc3ccccc3n1)C2` (racemic) [Example 37, (±)-(5-fluoro-2-(2H-1,2,3-triazol-2-yl)phenyl)(2-((quinoxalin-2-yloxy)methyl)-7-azabicyclo[2.2.1]heptan-7-yl)methanone], the pKi is 6.52 at human orexin 1 receptor (setting [2]) and 6.31 on human orexin 2 receptor (setting [1]).
Regarding `Cc1ccc(-c2ncccn2)c(C(=O)N2C3CCC2C(COc2cnc4ccccc4n2)C3)c1` (racemic) [Example 38, (±)-(5-methyl-2-(pyrimidin-2-yl)phenyl)(2-((quinoxalin-2-yloxy)methyl)-7-azabicyclo[2.2.1]heptan-7-yl)methanone], the negative-log Ki (pKi) on human orexin 1 receptor (hOX1 Ki (nm)) was 6.92; at human orexin 2 receptor (setting [1]), 6.42.
For the molecule `Cc1ccc(-n2nccn2)c(C(=O)N2C3CCC2C(COc2nc(C)cc(C)n2)C3)c1` (racemic) [Example 39, (±)-(2-(((4,6-dimethylpyrimidin-2-yl)oxy)methyl)-7-azabicyclo[2.2.1]heptan-7-yl)(5-methyl-2-(2H-1,2,3-triazol-2-yl)phenyl)methanone], the pKi is 7.54 at human orexin 1 receptor (hOX1 Ki (nm)) and 7.57 on human orexin 2 receptor (setting [1]).
In the case of `Cc1cc(C)nc(OCC2CC3CCC2N3C(=O)c2c(C)noc2-c2ccccc2)n1` (racemic) [Example 40, (±)-2-(((4,6-dimethylpyrimidin-2-yl)oxy)methyl)-7-azabicyclo[2.2.1]heptan-7-yl)(3-methyl-5-phenylisoxazol-4-yl)methanone], the pKi at human orexin 1 receptor (setting [2]) was 5.30; on human orexin 2 receptor (setting [1]), 5.92.
For `CCOc1ccc2ccccc2c1C(=O)N1C2CCC1C(COc1nc(C)cc(C)n1)C2` (racemic) [Example 41, (±)-(2-(((4,6-dimethylpyrimidin-2-yl)oxy)methyl)-7-azabicyclo[2.2.1]heptan-7-yl)(2-ethoxynaphthalen-1-yl)methanone], in that order: 7.46 and 7.66.
